Data taken from patent publication US11427553B2, “Dihydrooxadiazinones” (Bayer Aktiengesellschaft, priority 2017, dated 2022).

Tests used:
HEL 92.1.7 cells = assay: Assay 1 cell proliferation measurement, HEL 92.1.7; assay type: cell-based; details: Homo sapiens, Erythroleukemia, read-out: Anti-proliferation IC50 [nM] HEL 92.1.7
human full length PDE3B = human full length PDE3B (Homo sapiens (Human), UniProt Q13370); assay: Assay 5 PDE3B enzyme inhibition (3H-cAMP SPA); assay type: biochemical; details: Sf9 cell extract
Sequence of human full length PDE3B (Q13370 whole entry): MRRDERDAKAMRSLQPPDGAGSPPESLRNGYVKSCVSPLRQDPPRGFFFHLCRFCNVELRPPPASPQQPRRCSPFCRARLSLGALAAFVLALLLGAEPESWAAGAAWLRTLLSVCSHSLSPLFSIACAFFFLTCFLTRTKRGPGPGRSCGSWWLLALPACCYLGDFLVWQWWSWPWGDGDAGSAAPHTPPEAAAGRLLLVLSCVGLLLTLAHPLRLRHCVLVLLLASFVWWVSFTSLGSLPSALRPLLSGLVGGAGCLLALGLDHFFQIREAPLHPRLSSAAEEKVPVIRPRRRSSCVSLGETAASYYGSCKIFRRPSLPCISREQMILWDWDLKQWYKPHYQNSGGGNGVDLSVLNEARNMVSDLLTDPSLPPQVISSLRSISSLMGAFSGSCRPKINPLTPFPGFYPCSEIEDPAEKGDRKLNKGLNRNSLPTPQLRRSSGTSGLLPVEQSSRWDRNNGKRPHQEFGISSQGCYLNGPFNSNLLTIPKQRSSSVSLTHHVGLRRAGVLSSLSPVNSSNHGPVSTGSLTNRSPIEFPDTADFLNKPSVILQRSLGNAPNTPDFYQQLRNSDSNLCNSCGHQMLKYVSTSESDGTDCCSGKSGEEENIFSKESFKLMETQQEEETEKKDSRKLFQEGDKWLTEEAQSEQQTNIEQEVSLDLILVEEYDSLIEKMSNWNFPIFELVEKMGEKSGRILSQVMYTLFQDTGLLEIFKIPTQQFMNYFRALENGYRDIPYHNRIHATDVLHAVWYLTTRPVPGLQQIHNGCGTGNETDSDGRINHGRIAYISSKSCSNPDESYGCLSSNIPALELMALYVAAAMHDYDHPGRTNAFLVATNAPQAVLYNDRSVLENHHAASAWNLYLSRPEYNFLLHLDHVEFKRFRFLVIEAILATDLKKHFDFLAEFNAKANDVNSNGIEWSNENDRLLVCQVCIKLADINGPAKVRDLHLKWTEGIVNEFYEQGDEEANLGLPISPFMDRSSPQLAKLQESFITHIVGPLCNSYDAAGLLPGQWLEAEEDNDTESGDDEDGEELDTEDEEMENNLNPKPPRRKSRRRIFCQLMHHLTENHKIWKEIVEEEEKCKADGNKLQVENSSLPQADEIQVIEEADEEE
In short: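 Compounds in DMSO are mixed with diluted PDE3B extract from Sf9 cells, and reactions start on adding tritiated cAMP. After 60 min at room temperature, yttrium scintillation proximity beads terminate hydrolysis and signal is counted; IC50 values come from sigmoidal dose-response curves.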

HMCB cells = assay: Assay 1 cell proliferation measurement, HMCB; assay type: cell-based; details: Homo sapiens, Melanoma, read-out: Anti-proliferation IC50 [nM] HMCB
HeLa cells = assay: Assay 1 cell proliferation measurement (CTG, 72 h), HeLa; assay type: cell-based, human; details: Homo sapiens, HeLa; Assay 1, 72 h, Cell Titer Glo; read-out: HeLa IC50 [nM] (Cervical cancer)
In short: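 Growth inhibition relative to a 0 h baseline plate and 0.3% DMSO control, with IC50 fitted by 4-parameter curve. Compound exposure lasted 72 h at 37 °C across a 2.5-fold, 10-step series starting generally at 100 nM final.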

DKMG cells = assay: Assay 2 cell proliferation measurement, DKMG; assay type: cell-based; details: Homo sapiens, Glioma_astrocytoma, read-out: Anti-proliferation IC50 [nM] DKMG
Description: (§1) Cell Proliferation Measurement
(§2) The antiproliferative activity of the compounds of the general formula (I) was examined in vitro in human cancer cells. For this purpose, 500 cells, including HeLa cells, A2058 cells, DU145 cells, HMCB cells, IGR37 cells, NCIH1734 cells, OSRC2 cells, or 750 cells, including CAL51 cells, COL0741 cells, DBTRG05MG cells, DKMG cells, G292CLONEA141B1 cells, GB1 cells, HEL cells, HEL9217 cells, JHUEM1 cells, L3.3 cells, LI7 cells, TE4 cells, or 1000 cells, including 8505C cells, HUT78 cells, NCIH1563 cells, NCIH2122 cells, NCIH2172 cells, RVH421 cells, SKMEL3 cells, or 1500 cells, including C32 cells, HS578T cells, JHOM1 cells, NCIH196 cells, OVKATE cells, were plated in 384-well plates with appropriate growth medium and incubated at 37° C. overnight. After 24 h, the cells on the test plate were treated with the compounds of the general formula (I) as and incubated at 37° C. for 72 h. The compounds were added to the cells by means of an HP D300 digital dispenser in a 10 (or more)-step dilution series. As control, the cells were treated with vehicle (DMSO at 0.3% final concentration). After 72 h, the cells were treated with 20 μl/well of 50% CTG solution in PBS (Promega Cell Titer Glo (catalogue #G755B and G756B)) and incubated at room temperature for 10 min, and luminescence was measured by means of a VICTOR V (Perkin Elmer), in order to determine cell viability at the end of treatment. The percentage effect on cell growth and the IC50 derived therefrom were determined for each test substance using the values from untreated wells (=percent viability). The IC50 values were calculated using a 4-parameter fit.

SKMEL3 cells = assay: Assay 2 cell proliferation measurement, SKMEL3; assay type: cell-based; details: Homo sapiens, SK-MEL3, Melanoma, read-out: Anti-proliferation IC50 [nM] SKMEL3
Description: as §1, §2

HS578T cells = assay: Assay 2 cell proliferation measurement, HS578T; assay type: cell-based; details: Homo sapiens, Hs-578T, Breast, ductal carcinoma, read-out: Anti-proliferation IC50 [nM] HS578T
Description: as §1, §2

TE4 cells = assay: Assay 2 cell proliferation measurement, TE4; assay type: cell-based; details: Homo sapiens, Oesophagus squamous cell carcinoma, read-out: Anti-proliferation IC50 [nM] TE4
Description: as §1
as §2, with “After 24 h, the cells on the test plate were treated with the compounds of the general formula (I) as and incubated at 37° C. for 72 h. The compounds were added to the cells by means of an HP D300 digital dispenser in a 10 (or more)-step dilution series. As control, the cells were treated with vehicle (DMSO at 0.3% final concentration).” left out

C32 cells = assay: Assay 2 cell proliferation measurement, C32; assay type: cell-based; details: Homo sapiens, Melanoma, read-out: Anti-proliferation IC50 [nM] C32
Description: as §1, §2

Compound	IC50 (human full length PDE3B)	IC50 (HeLa cells)	IC50 (SKMEL3 cells)	IC50 (HEL 92.1.7 cells)	IC50 (HMCB cells)	IC50 (DKMG cells)	IC50 (HS578T cells)	IC50 (TE4 cells)	IC50 (C32 cells)
O=C1NN=C(c2ccc(-c3ccc(F)cc3)c(C(F)(F)F)c2)CO1 [Example 3, 5-[4′-Fluoro-2-(trifluoromethyl)biphenyl-4-yl]-3,6-dihydro-2H-1,3,4-oxadiazin-2-one]	197 nM	3 nM		25 nM	26 nM				
O=C1NN=C(c2ccc(-c3ccc(Cl)cc3)c(C(F)(F)F)c2)CO1 [Example 31, 5-[4′-Chloro-2-(trifluoromethyl)biphenyl-4-yl]-3,6-dihydro-2H-1,3,4-oxadiazin-2-one]	603 nM	4 nM		47 nM					
C[C@@H]1OC(=O)NN=C1c1ccc(-n2ccc(C(F)(F)F)n2)c(C(F)(F)F)c1 [Example 265, (6S)-6-Methyl-5-{3-(trifluoromethyl)-4-[3-(trifluoromethyl)-1H-pyrazol-1-yl]phenyl}-3,6-dihydro-2H-1,3,4-oxadiazin-2-one]		2 nM	10 nM			59 nM	116 nM	41 nM	132 nM

These reach a lower IC50 (HeLa cells). Values come first.

IC50 (human full length PDE3B)	IC50 (HeLa cells)	IC50 (SKMEL3 cells)	Compound	IC50 (HEL 92.1.7 cells)	IC50 (HMCB cells)	IC50 (DKMG cells)	IC50 (HS578T cells)	IC50 (TE4 cells)	IC50 (C32 cells)
50 nM	1 nM	5 nM	C[C@@H]1OC(=O)NN=C1c1ccc(-c2ccc(F)cc2)c(C(F)(F)F)c1 [Example 135, (6S)-5-[4′-Fluoro-2-(trifluoromethyl)biphenyl-4-yl]-6-methyl-3,6-dihydro-2H-1,3,4-oxadiazin-2-one]		13 nM	22 nM	33 nM	15 nM	58 nM
80 nM	1 nM	3 nM	O=C1NN=C(c2ccc(-c3cnn(C(F)F)c3)c(C(F)(F)F)c2)CO1 [Example 146, 5-{4-[1-(Difluoromethyl)-1H-pyrazol-4-yl]-3-(trifluoromethyl)phenyl}-3,6-dihydro-2H-1,3,4-oxadiazin-2-one]	13 nM		13 nM	20 nM		52 nM
